Measured values as given in patent US20240374517A1, “LIPIODOL FORMULATION FOR TRANSARTERIAL CHEMOIMMUNOEMBOLIZATION” (Northwestern University, priority 2021, published 2024).

Tested on: HepG2 cells
Test: Dox uptake and cytotoxicity in HepG2 cells
Details: with (20%) vs without (0%) PF127

In the case of COc1cccc2c1C(=O)c1c(O)c3c(c(O)c1C2=O)C[C@@](O)(C(=O)CO)C[C@@H]3O[C@H]1C[C@H](N)[C@H](O)[C@H](C)O1 [Dox, doxorubicin], the “cytotoxicity of Dox” value (CCK-8, 48 hours) was “not affected” and the “cellular uptake of Dox” value (Dox 10 μM, 30 and 60 minutes) was “not affected”.
